Reference: patent US8138350B2, “N′-cyano-N-halogenalkylimidamide derivatives” (Bayer Cropscience AG, priority 2006, dated 2012)

What was measured:
Type in all cases: in vivo
[1] = system: Phaedon cochleariae; assay: Phaedon test (spray treatment); conditions: 20 g/ha; after 7 d; comparative example
Experimental: Phaedon Test (Spray Treatment)
To produce a suitable preparation of active compound, 1 part by weight of active compound is mixed with the stated amounts of solvents and emulsifier, and the concentrate is diluted with emulsifier-containing water to the desired concentration.
After the desired period of time, the activity in % is determined. 100% means that all beetle larvae have been killed, 0% means that none of the beetle larvae have been killed.
In this test, for example, the following compounds of the Preparation Examples show an activity of ≧80% at an application rate of 500 g/ha: […]

[2] = system: Ctenocephalides felis; assay: Ctenocephalides felis; oral; conditions: 100 ppm in citrated cattle blood, after 2 d, adult fleas, comparative example
Experimental: Ctenocephalides Felis; Oral
(§1) Solvent: Dimethyl sulphoxide
To produce a suitable preparation of active compound, 1 part by weight of active compound is mixed with the stated amount of […]. Part of the concentrate is diluted with citrated cattle blood, and the desired concentration is prepared.
20 unfed adult fleas (Ctenocephalides felis) are placed into a chamber whose top and bottom ends are closed with gauze. A metal cylinder whose bottom end is closed with parafilm is placed onto the chamber. The cylinder contains the blood/active compound preparation, which can be taken up by the fleas through the parafilm membrane. The blood is warmed to 37° C., but the flea chamber is at room temperature.
After the desired period of time, the kill in % is determined. 100% means that all fleas have been killed; 0% means that none of the fleas have been killed.

[3] = system: Musca domestica; assay: Musca domestica test; conditions: 100 ppm; treated sponge; after 2 d; adult flies; comparative example
Experimental: as §1
To produce a suitable preparation of active compound, 1 part by weight of active compound is mixed with the stated amount of water, and the concentrate is diluted with water to the desired concentration.
Containers containing a sponge treated with the active compound preparation of the desired concentration are populated with adult Musca domestica.
After the desired period of time, the kill in % is determined. 100% means that all flies have been killed; 0% means that none of the flies have been killed.

| Compound | Phaedon test spray treatment % 7 d [1] | Ctenocephalides felis % 2 d (kill) [2] | Musca domestica % 2 d (kill) [3] |
| --- | --- | --- | --- |
| CCN(Cc1ccc(Cl)nc1)C(C)=NC#N | 0% | 30% | 0% |
| CC(=NC#N)N(Cc1ccc(Cl)nc1)CC(F)F [I-1, N-[(6-chloropyridin-3-yl)methyl]-N′-cyano-N-(2,2-difluoroethyl)ethanimidamide] | 100% | 70% | 100% |
